# Data: patent US20040230057A1, “Dye for optical recording medium” (priority 2003, published 2004)
# Assays:
# [1] = UV-visible absorption spectroscopy; assay type: physicochemical; settings: for absorption wavelength: UV-visible absorption spectrum; for Maximum Absorption Wavelength: methanol
# Excerpt: (§1) The results of the thermal gravametric analysis and the ultraviolent-visible absorption spectroscopy of the optical recording medium dyes obtained in the above experiment 1 to experiment 8 are summarized in Table 1. The thermal gravametric analysis and the ultraviolent-visible absorption spectroscopy detect, respectively, the thermal breakdown temperature (the temperature of a 5% thermal weight loss) and the optical property (the largest absorption wavelength, absorption coefficient of the solution). […] Further, the thermal breakdown temperatures are above 250 degrees Celsius. Accordingly, the optical recording medium dyes of the present invention comprises a broad wavelength range and has favorable thermal stability and solubility.
# [2] = thermal gravimetric analysis; assay type: physicochemical; settings: for Thermal Breakdown Temperature: temperature of a 5% thermal weight loss; for temperature of sudden weight loss (thermal breakdown temperature): thermal gravimetric analysis
# Excerpt: as §1
Compound,absorption wavelength [1] [nm],Maximum Absorption Wavelength [1] [nm],Thermal Breakdown Temperature [2] [°C],temperature of sudden weight loss (thermal breakdown temperature) [2]
CCCCN1C(=CC=Cc2ccc3ccccc3[n+]2CCCC)C(C)(C)c2cc(Cl)ccc21 [Experiment 1],561.8,561.8,280.2,about 280.2 degrees Celsius
CCCCN1C(=CC=Cc2ccc3ccccc3[n+]2CCCC)C(C)(C)c2c1ccc1ccccc21 [Experiment 2],583.0,583.0,268.6,about 268.6 degrees Celsius
CCCCN1C(=CC=Cc2ccc3ccccc3[n+]2CCCC)C(C)(C)c2c1ccc1ccccc21 [Experiment 3],583.0,583.0,274.2,about 274.2 degrees Celsius
CCCCN1C(=CC=Cc2cc[n+](CC)c3ccccc23)C(C)(C)c2c1ccc1ccccc21 [Experiment 7],625,625.0,270.7,about 270.7 degrees Celsius

# The remaining lines, values ahead:
absorption wavelength [1] [nm],Maximum Absorption Wavelength [1] [nm],Thermal Breakdown Temperature [2] [°C],temperature of sudden weight loss (thermal breakdown temperature) [2],Compound
548.2,548.2,309.5,about 309.5 degrees Celsius,CCCC[n+]1c(C=CC=C2N(C)c3ccc([N+](=O)[O-])cc3C2(C)C)ccc2ccccc21 [Experiment 4]
598.4,598.4,266.3,about 266.3 degrees Celsius,CCCCN1C(=CC=Cc2cc[n+](CC)c3ccccc23)C(C)(C)c2cc(Cl)ccc21 [Experiment 5]
570.0,570.0,302.7,about 302.7 degrees Celsius,CC[n+]1ccc(C=CC=C2N(C)c3ccc([N+](=O)[O-])cc3C2(C)C)c2ccccc21 [Experiment 6]
